These results are taken from US7527812B2, “Herbal composition for treating cancer” (Sheng Foong Pharmaceutical Co., Ltd., priority 2005, dated 2009).

Structures are written as SMILES.

Common to all, as to assay type: cell-based
Assay [1] relates to Hep 3B hepatocellular carcinoma cells. As to the kind of experiment: in vitro cytotoxicity assay (MTS), Hep 3B. As to conditions: Homo sapiens, Hep3B, 72 hours exposure, read-out: IC50 (concentration that inhibits 50% of cell growth). An excerpt: (§1) To examine the effects of the present composition SF-01 on inhibition of cancer/tumor cells, various human cell lines were used, including one normal cell line and eight cancer/tumor cell lines: • 1. RPTEC (Cambrex): Normal renal proxima tubule epithelial cell, Human • 2. A-498 (ATCC HTB-44): Kidney carcinoma, Human • 3. HCT 116 (ATCC CCL-247): Colorectal carcinoma, Human • 4. Hep 3B (ATCC HB-8064): Hepatocellular carcinoma, Human • 5. LNCap clone FGC (ATCC CRL-1740): Prostate carcinoma, Human • 6. MCF-7 (ATCC HTB-22): Mammary gland adenocarcinoma, Human • 7. MKN45 (FDSC JCRB0245): Stomach carcinoma, Human • 8. NCI-H226 (ATCC CRL-5826): Lung carcinoma, Human • 9. NPC-TW01 (School of Medicine, NTU): Nasal-pharyngeal carcinoma, Human […]
(§2) To evaluate the antitumoral activity of SF-01 towards various human cancer cell lines and measure the potential cytotoxicity of SF-01 towards the primary human renal cell lines (RPTEC), an in vitro cytotoxicity assay was carried out. […] To quantify the metabolically viable cells, the conversion of MTS to formazan was measured by absorbance at 490 nm in a 96-well microtiter plate reader. […] The percentage of cytostasis was calculated by the formula: Cytostasis (%)=[1−(B/A)]×100, where A is the absorbance of the untreated control and B is the absorbance of the treated cell. […]

In assay [2] the test system is LNCaP clone FGC prostate carcinoma cells. As to the kind of experiment: in vitro cytotoxicity assay (MTS), LNCaP clone FGC. The note with it: Homo sapiens, 72 hours exposure, read-out: IC50 (concentration that inhibits 50% of cell growth).
From the text: as §1, §2

For assay [3], the system named is various human tumor cell lines. The experiment in a line: in vitro cytotoxicity assay (MTS), span over the tumor cell lines. As to conditions: span over the eight tumor cell lines, 72 hours exposure.
From the text: as §1, §2

The test system of assay [4] is RPTEC normal renal proximal tubule epithelial cells. As to the kind of experiment: in vitro cytotoxicity assay (MTS), normal cell RPTEC. The note with it: Homo sapiens, 72 hours exposure, read-out: IC50 (concentration that inhibits 50% of cell growth).
From the text: as §1, §2

Assay [5] has as its system NCI-H226 lung carcinoma cells. As to the kind of experiment: in vitro cytotoxicity assay (MTS), NCI-H226. The note with it: Homo sapiens, NCI-H226, 72 hours exposure, read-out: IC50 (concentration that inhibits 50% of cell growth).
From the text: as §1, §2

For assay [6], the system named is HCT 116 colorectal carcinoma cells. The experiment in a line: in vitro cytotoxicity assay (MTS), HCT 116. The note with it: Homo sapiens, HCT 116, 72 hours exposure, read-out: IC50 (concentration that inhibits 50% of cell growth).
From the text: as §1, §2

Assay [7] deals with A-498 kidney carcinoma cells. The experiment in a line: in vitro cytotoxicity assay (MTS), A498. The note with it: Homo sapiens, A498, 72 hours exposure, read-out: IC50 (concentration that inhibits 50% of cell growth).
From the text: as §1, §2

In assay [8] the test system is MCF-7 mammary gland adenocarcinoma cells. As to the kind of experiment: in vitro cytotoxicity assay (MTS), MCF-7. The note with it: Homo sapiens, MCF7, MCF-7, 72 hours exposure, read-out: IC50 (concentration that inhibits 50% of cell growth).
From the text: as §1, §2

Assay [9] concerns MKN45 stomach carcinoma cells. As to the kind of experiment: in vitro cytotoxicity assay (MTS), MKN45. As to conditions: Homo sapiens, MKN-45, MKN45, 72 hours exposure, read-out: IC50 (concentration that inhibits 50% of cell growth).
From the text: as §1, §2

Assay [10] deals with NPC-TW01 nasal-pharyngeal carcinoma cells. As to the kind of experiment: in vitro cytotoxicity assay (MTS), NPC-TW01. As to conditions: Homo sapiens, NPC-TW01, 72 hours exposure, read-out: IC50 (concentration that inhibits 50% of cell growth).
From the text: as §1, §2

Consider `COc1cccc2c1C(=O)c1c(O)c3c(c(O)c1C2=O)C[C@@](O)(C(=O)CO)C[C@@H]3O[C@H]1C[C@H](N)[C@H](O)[C@H](C)O1` [Doxorubicin], for which the IC50 stood at 116 nM in [1]; 14 nM in [2]; 3180 nM in assay [4]; 123 nM in assay [5]; 33 nM in assay [6]; 782 nM in assay [7]. For the same compound, the IC50 in [8] was determined as 70 nM; in assay [9] it was 58 nM; in assay [10] it was 11 nM. For the same compound, the “IC50 to various human tumor cell lines (span over the lines)” value in assay [3] is listed as 800 to 11 nM.
On to `CC(=O)O[C@H]1C(=O)[C@@]2(C)[C@H]([C@H](OC(=O)c3ccccc3)[C@]3(O)C[C@H](OC(=O)[C@H](O)[C@@H](NC(=O)c4ccccc4)c4ccccc4)C(C)=C1C3(C)C)[C@]1(OC(C)=O)CO[C@@H]1C[C@@H]2O` [Taxol], for which the IC50 in assay [1] was 0.0256 nM; in assay [2], less than 0.0256 nM; in assay [4], 406 nM; in assay [5], less than 0.64 nM; in assay [6], less than 0.0256 nM; in [7] it was 11.1 nM. Further, the IC50 in assay [8] was less than 0.0256 nM; in assay [9], 0.0256 nM; in assay [10], less than 0.0256 nM. The “IC50 to various human tumor cell lines (span over the lines)” value in assay [3] is given as 11 to 0.003 nM.
